We go through 11 molecules from PubChem BioAssay (NCI).

Test systems include MALME-3M melanoma; NCI-H460 lung; UO-31 renal; OVCAR-8 ovarian; SR leukemia; CAKI-1 renal; SNB-19 CNS; MDA-MB-435; MCF7 breast; TK-10 renal.
Holding throughout (experiment): NCI tumour cell line growth inhibition, 48 h

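Five compound concentrations were applied to cells in 96-well plates for 48 hours; endpoints were derived by simple linear interpolation of the resulting dose-response curve. Here, GI50 denotes the concentration required for 50% inhibition of growth. TGI: total growth inhibition.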

Regarding `CC[C@H](C)C1=C(OC(C)=O)[N@+]2([O-])Oc3ccc(-c4c(OC(C)=O)c(OC(C)=O)c(-c5ccc(OC(C)=O)cc5)c(OC(C)=O)c4OC(C)=O)cc3O[C@]2([C@@H](C)CC)C(=O)N1OC(C)=O`, the TGI was greater than 50 µM in the assay on MALME-3M melanoma; greater than 50 µM in the assay on NCI-H460 lung; greater than 50 µM with UO-31 renal; 37.6 µM in the assay with OVCAR-8 ovarian; 28 µM in the assay on SR leukemia; greater than 50 µM in the assay on CAKI-1 renal. Also, the TGI in the assay with SNB-19 CNS, in the assay on MDA-MB-435, with MCF7 breast and in the assay with TK-10 renal was greater than 50 µM throughout.
For `CSC1=C(C(=O)Nc2ccccc2)C(N)=NC1=O`, the TGI in the assay with MALME-3M melanoma, in the assay on NCI-H460 lung, in the assay on UO-31 renal, in the assay on OVCAR-8 ovarian, with SR leukemia and with CAKI-1 renal was greater than 100 µM each time. For the same molecule, the TGI in the assay with SNB-19 CNS, in the assay on MDA-MB-435, in the assay with MCF7 breast and in the assay with TK-10 renal was greater than 100 µM each time.
Take `C[N+](C)(N)c1nc(N)c(C#N)c(C#N)c1C#N`: the TGI in the assay on MALME-3M melanoma, in the assay with NCI-H460 lung, in the assay on UO-31 renal, with OVCAR-8 ovarian, in the assay on SR leukemia and in the assay on CAKI-1 renal was greater than 10 µM each time. Further, the TGI with SNB-19 CNS, in the assay with MDA-MB-435, in the assay on MCF7 breast and in the assay on TK-10 renal was greater than 10 µM in each case.
Consider `CC(/C=N/NC1=NCCCN1)=N\NC1=NCCCN1`, for which the TGI in the assay with MALME-3M melanoma, in the assay with NCI-H460 lung, with UO-31 renal, in the assay on OVCAR-8 ovarian, with SR leukemia and in the assay with CAKI-1 renal was greater than 100 µM each time. Moreover, the TGI with SNB-19 CNS, with MDA-MB-435, in the assay with MCF7 breast and in the assay with TK-10 renal was greater than 100 µM in each case.
`CC(C)c1cccc(C(C)C)c1OS(=O)(=O)NC(=O)OC(C(F)(F)F)C(F)(F)F`: the TGI in the assay on MALME-3M melanoma, in the assay with NCI-H460 lung, with UO-31 renal, with OVCAR-8 ovarian, in the assay on SR leukemia and with CAKI-1 renal was greater than 100 µM in each case. The TGI in the assay on SNB-19 CNS, with MDA-MB-435, with MCF7 breast and in the assay on TK-10 renal was greater than 100 µM each time.
Turning to `COc1ccc2[nH]c(O)c(/C=c3/cc4c(c(-c5ccc(F)cc5)n3)=Nc3ccccc3-4)c2c1`, the GI50 in the assay with MALME-3M melanoma is 2.4 µM; with NCI-H460 lung it was 1.82 µM; with UO-31 renal it was 15.5 µM; in the assay with OVCAR-8 ovarian it was 2 µM; in the assay with SR leukemia, 1.07 µM; in the assay with CAKI-1 renal, 18.2 µM. The GI50 in the assay on SNB-19 CNS was 3.6 µM; in the assay on MDA-MB-435, 2.05 µM; in the assay with MCF7 breast, 1.36 µM; in the assay on TK-10 renal it was 2.71 µM. Moreover, the TGI stood at 4.6 µM with MALME-3M melanoma; 4.01 µM in the assay on NCI-H460 lung; 30.3 µM with UO-31 renal; 5.01 µM in the assay with OVCAR-8 ovarian; 6.65 µM in the assay with SR leukemia; 36.8 µM in the assay with CAKI-1 renal. Further, the TGI was greater than 100 µM with SNB-19 CNS, 6.34 µM in the assay on MDA-MB-435, 3.32 µM in the assay with MCF7 breast and 5.32 µM in the assay on TK-10 renal.
On to `Nc1ccc(-c2nc3ccccc3s2)cc1Br`, for which the TGI in the assay on MALME-3M melanoma, in the assay on NCI-H460 lung, in the assay with UO-31 renal, in the assay on OVCAR-8 ovarian, with SR leukemia and in the assay on CAKI-1 renal was greater than 100 µM each time. Moreover, the TGI with SNB-19 CNS, in the assay with MDA-MB-435, in the assay with MCF7 breast and in the assay on TK-10 renal was greater than 100 µM in each case.
Take `C=CC(Br)(CBr)CCC(Br)C(C)C` (stereo not given): the TGI worked out at 28.1 µM with MALME-3M melanoma; 18.4 µM in the assay with NCI-H460 lung; 26.3 µM in the assay on UO-31 renal; 8.58 µM in the assay on OVCAR-8 ovarian; 3.99 µM in the assay on SR leukemia; 16.3 µM with CAKI-1 renal. The TGI came to 23.4 µM with SNB-19 CNS, 33.5 µM in the assay with MDA-MB-435, 3.75 µM in the assay on MCF7 breast and 10.4 µM with TK-10 renal.
For `COC(=O)[C@H](CCSC)NC(=O)c1ccc(CNC(=O)/C(C)=C/c2ccccc2)cc1`, the TGI in the assay with MALME-3M melanoma is 29.5 µM; with NCI-H460 lung, greater than 100 µM; in the assay on UO-31 renal, greater than 100 µM; in the assay on OVCAR-8 ovarian it was 51.4 µM; in the assay with SR leukemia it was greater than 100 µM; in the assay on CAKI-1 renal, greater than 100 µM. In addition, the TGI in the assay with SNB-19 CNS is 58.2 µM; in the assay with MDA-MB-435 it was greater than 100 µM; with MCF7 breast, greater than 100 µM; in the assay on TK-10 renal, greater than 100 µM.
In the case of `COc1cc(C=O)cc(C=Nc2ccc(S(N)(=O)=O)cc2)c1O`, the TGI is 7.78 µM in the assay on MALME-3M melanoma; 74.6 µM in the assay with NCI-H460 lung; greater than 100 µM in the assay with UO-31 renal; greater than 100 µM in the assay with OVCAR-8 ovarian; 42.1 µM with SR leukemia; 49.3 µM in the assay on CAKI-1 renal. Also, the TGI in the assay with SNB-19 CNS is greater than 100 µM; with MDA-MB-435, 49 µM; in the assay on MCF7 breast, greater than 100 µM; with TK-10 renal it was greater than 100 µM.
For the molecule `O=C1OC(=O)C2C1C(c1ccccc1[N+](=O)[O-])C=C(c1ccco1)N2c1ccncc1` (stereo not given), the TGI with MALME-3M melanoma came to 40.6 µM; in the assay on NCI-H460 lung, 31.9 µM; in the assay on UO-31 renal, 15.3 µM; in the assay on OVCAR-8 ovarian, 31.8 µM; in the assay on SR leukemia, 1.44 µM; in the assay with CAKI-1 renal it was 37.5 µM. Also, the TGI with SNB-19 CNS is 35.5 µM; in the assay with MDA-MB-435, 52.6 µM; with MCF7 breast it was 6.73 µM; in the assay on TK-10 renal, greater than 26.9 µM.
